The results in this text go back to patent US11639353B2, “Cyclobutanes- and azetidine-containing mono and spirocyclic compounds as αV integrin inhibitors” (BRISTOL-MYERS SQUIBB COMPANY, priority 2016, dated 2023).

Structures can show the parent of a compound that is named as a salt.

For this test, the target named is T1, human αVβ6 (Homo sapiens, UniProt P06756+P18564).
T1 construct: purchased R & D systems 3817-AV
T1 sequence (P06756 31-992 limits assumed): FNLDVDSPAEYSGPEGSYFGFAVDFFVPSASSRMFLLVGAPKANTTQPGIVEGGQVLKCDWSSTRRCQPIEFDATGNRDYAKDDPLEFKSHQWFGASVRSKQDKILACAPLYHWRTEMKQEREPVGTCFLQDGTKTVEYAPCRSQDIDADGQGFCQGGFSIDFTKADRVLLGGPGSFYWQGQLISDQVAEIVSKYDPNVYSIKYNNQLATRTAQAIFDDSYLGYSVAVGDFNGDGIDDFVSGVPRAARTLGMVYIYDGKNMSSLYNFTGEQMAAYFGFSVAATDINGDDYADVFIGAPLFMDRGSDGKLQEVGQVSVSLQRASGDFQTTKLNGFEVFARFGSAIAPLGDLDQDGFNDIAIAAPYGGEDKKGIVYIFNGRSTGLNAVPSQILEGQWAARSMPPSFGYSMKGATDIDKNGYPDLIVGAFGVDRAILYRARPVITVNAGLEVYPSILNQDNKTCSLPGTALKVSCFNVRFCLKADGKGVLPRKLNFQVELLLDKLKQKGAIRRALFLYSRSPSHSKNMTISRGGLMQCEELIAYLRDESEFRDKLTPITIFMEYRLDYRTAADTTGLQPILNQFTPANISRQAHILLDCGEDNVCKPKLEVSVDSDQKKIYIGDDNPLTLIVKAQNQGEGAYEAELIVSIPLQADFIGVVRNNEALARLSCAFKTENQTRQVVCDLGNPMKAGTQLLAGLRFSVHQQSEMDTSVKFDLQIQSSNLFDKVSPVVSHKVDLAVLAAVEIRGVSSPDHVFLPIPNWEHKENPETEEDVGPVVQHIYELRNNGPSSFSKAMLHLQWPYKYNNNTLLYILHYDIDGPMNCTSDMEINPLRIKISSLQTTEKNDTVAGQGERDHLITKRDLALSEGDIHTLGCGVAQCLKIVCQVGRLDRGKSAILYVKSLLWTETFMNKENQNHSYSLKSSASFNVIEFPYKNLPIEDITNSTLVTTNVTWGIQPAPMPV
T1 sequence (P18564 22-707 limits assumed): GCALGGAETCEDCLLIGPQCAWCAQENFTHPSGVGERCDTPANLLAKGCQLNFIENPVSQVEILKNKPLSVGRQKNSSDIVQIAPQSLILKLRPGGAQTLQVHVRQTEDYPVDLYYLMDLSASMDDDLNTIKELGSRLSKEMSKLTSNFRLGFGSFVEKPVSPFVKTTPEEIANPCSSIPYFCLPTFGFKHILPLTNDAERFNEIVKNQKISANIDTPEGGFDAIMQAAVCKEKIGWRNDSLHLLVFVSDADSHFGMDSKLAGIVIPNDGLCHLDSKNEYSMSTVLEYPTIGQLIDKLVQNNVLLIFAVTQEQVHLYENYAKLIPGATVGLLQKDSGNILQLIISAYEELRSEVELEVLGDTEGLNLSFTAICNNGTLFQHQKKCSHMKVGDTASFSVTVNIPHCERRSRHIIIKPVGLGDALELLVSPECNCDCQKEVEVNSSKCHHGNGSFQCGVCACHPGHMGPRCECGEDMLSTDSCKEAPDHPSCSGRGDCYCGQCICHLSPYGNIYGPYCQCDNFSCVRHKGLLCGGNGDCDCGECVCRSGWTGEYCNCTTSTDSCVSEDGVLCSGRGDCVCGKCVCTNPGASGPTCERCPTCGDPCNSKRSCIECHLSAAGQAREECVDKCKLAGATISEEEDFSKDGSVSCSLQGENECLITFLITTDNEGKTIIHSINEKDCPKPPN
Put plainly: human αVβ6 HTRF binding assay. Particulars: alternatively SPA-based assay. In a few lines:
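Biotinylated recombinant human αVβ6 (1.25 nM final) incubated with FITC-fibronectin (5 nM final) 1 h at RT, then streptavidin-terbium (0.625 nM final) added and left overnight at RT in the dark before HTRF reading. Buffer: 20 mM Tris pH 7.4, 1 mM MgCl2, 1 mM MnCl2, 0.01% Tween 20, 0.01% BSA.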
`COc1ccc([C@H](CC(=O)O)N2CC(F)(CCCCc3ccc4c(n3)NCCC4)C2)cc1F` [Example 165]: the IC50 amounted to 2.5 nM.

The compound `CCCOC(=O)N[C@@H](CNC(=O)[C@H]1C[C@@H](Cc2ccc3c(n2)NCCC3)C1)C(=O)O` [Example 198] came in with an IC50 of 1.9 nM.

The compound `COc1ccc([C@H](CC(=O)O)NC(=O)N2CC(F)(CCc3ccc4c(n3)NCCC4)C2)cc1F` [Example 76] showed an IC50 of 0.96 nM.

Compound `COc1ccc(C(CC(=O)O)N2CC3(CC(CCc4ccc5c(n4)NCCC5)C3)C2)cn1` (stereo not drawn) [Example 205] registered an IC50 of 3.7 nM.

Compound `O=C(C[C@H](NC(=O)OCc1ccccc1)C(=O)O)NC1CC(CCc2ccc3c(n2)NCCC3)C1` (stereo partly drawn) [Example 64] had an IC50 of 4 nM.

The compound `O=C(O)CC(c1ccc2nccnc2c1)C1CC(NCCCc2ccc3c(n2)NCCC3)C1` (stereo not drawn) [Example 148] registered an IC50 of 6.5 nM.

In the case of `N[C@@H](CNC(=O)C1CN(CCc2ccc3c(n2)NCCC3)C1)C(=O)O` [Example 55], the IC50 was found to be 20 nM.

With `Cc1ncc([C@H](CC(=O)O)N2CC(F)(CCCCc3ccc4c(n3)NCCC4)C2)cn1` [Example 167], the IC50 was 3.3 nM.

`Cc1cc(C)c(S(=O)(=O)N[C@@H](CNC(=O)[C@H]2C[C@@H](Cc3ccc4c(n3)NCCC4)C2)C(=O)O)c(C)c1` [Example 200, (S)-3-(cis-3-((5,6,7,8-Tetrahydro-1,8-naphthyridin-2-yl)methyl)-cyclobutane-1-carboxamido)-2-((2,4,6-trimethylphenyl)sulfonamido)-propanoic acid]: the IC50 was 3.8 nM.

The compound `O=C(N[C@@H](CNC(=O)[C@H]1C[C@@H](Cc2ccc3c(n2)NCCC3)C1)C(=O)O)OCC1CCC1` [Example 199] displayed a 50% inhibitory concentration (IC50) of 2.2 nM.

Regarding `COc1ccc(C(CC(=O)O)N2CC3(CC(Cc4ccc5c(n4)NCCC5)C3)C2)cc1F` (stereo not drawn) [Example 210, 3-(3-fluoro-4-methoxyphenyl)-3-(6-((5,6,7,8-tetrahydro-1,8-naphthyridin-2-yl)methyl)-2-azaspiro[3.3]heptan-2-yl)propanoic acid], the IC50 was determined as 5.6 nM.

Turning to `O=C(O)CC(c1cnc2ccccc2c1)C1(F)CN(CCCCc2ccc3c(n2)NCCC3)C1` (stereo not drawn) [Example 118], the IC50 is 5.9 nM.

In the case of `CN(C1CC2(C1)CN(CCc1ccc3c(n1)NCCC3)C2)[C@@H](CC(=O)O)c1cc(Cl)cc(Cl)c1` [Example 20, (S)-3-(3,5-Dichlorophenyl)-3-(methyl(2-(2-(5,6,7,8-tetrahydro-1,8-naphthyridin-2-yl)ethyl)-2-azaspiro[3.3]heptan-6-yl)amino)propanoic acid], the IC50 came to 16 nM.

Turning to `COc1ccc([C@H](CC(=O)O)N2CC(CCCc3ccc4c(n3)NCCC4)C2=O)cn1` (single isomer, unassigned) [Example 181], the IC50 was 25 nM.

Turning to `COc1ccc(C(CC(=O)O)C2CC(NCCCc3ccc4c(n3)NCCC4)C2)cn1` (stereo not drawn) [Example 125], the IC50 came out at 5.7 nM.

On to `COC(=O)N(C1CC2(C1)CN(CCc1ccc3c(n1)NCCC3)C2)[C@@H](CC(=O)O)c1cc(Cl)cc(Cl)c1` [Example 19, (S)-3-(3,5-Dichlorophenyl)-3-((methoxycarbonyl)(2-(2-(5,6,7,8-tetrahydro-1,8-naphthyridin-2-yl)ethyl)-2-azaspiro[3.3]heptan-6-yl)amino)propanoic acid], for which the half-maximal inhibitory concentration (IC50) turned out to be 84.5 nM.

Regarding `COc1ncc([C@H](CC(=O)O)N2CC(CCCCc3ccc4c(n3)NCCC4)C2=O)cn1` (stereo partly drawn) [Example 70], the 50% inhibitory concentration (IC50) was 5.8 nM.

`COc1ccc([C@H](CC(=O)O)N2CC(CCCc3ccc4c(n3)NCCC4)C2)cn1` [Example 169] registered an IC50 of 4 nM.

`COc1ccc(C(NC(=O)C2CC(CCc3ccc4c(n3)NCCC4)C2)C(C)(C)C(=O)O)cn1` (single isomer, unassigned) [Example 190, 3-(6-methoxypyridin-3-yl)-2,2-dimethyl-3-(3-(2-(5,6,7,8-tetrahydro-1,8-naphthyridin-2-yl)ethyl)cyclobutane-1-carboxamido)propanoic acid] had an IC50 of 3300 nM.

“(S)-Ethyl 3-(6-methoxypyridin-3-yl)-3-(1-methyl-3-(2-(5,6,7,8-tetrahydro-1,8-naphthyridin-2-yl)ethyl)cyclobutanecarboxamido)propanoate [Example 16]”: the IC50 was 2.6 nM.

On to `O=C(O)CCN(C(=O)OCc1ccccc1)C1CN(CCCc2ccc3c(n2)NCCC3)C1` [Example 119], for which the IC50 is 7.4 nM.

The compound `COc1ccc([C@H](CC(=O)O)NC(=O)C2CC3(CC(CCc4ccc5c(n4)NCCC5)C3)C2)cn1` (mixture of isomers) [Example 50] displayed an IC50 of 110 nM.

As to `COc1ccc([C@H](CC(=O)O)C2(F)CN(C(=O)CCCc3ccc4c(n3)NCCC4)C2)cn1` (single isomer, unassigned) [Example 17], the IC50 was 29 nM.

With `O=C(N[C@@H](CCN1CC2(CC(CCc3ccc4c(n3)NCCC4)C2)C1)C(=O)O)OCc1ccccc1` [Example 8, (S)-2-(((Benzyloxy)carbonyl)amino)-4-(6-(2-(5,6,7,8-tetrahydro-1,8-naphthyridin-2-yl)ethyl)-2-azaspiro[3.3]heptan-2-yl)butanoic acid], the IC50 worked out at 2 nM.

`COc1ccc(CN(CCC(=O)O)C2CN(CCCc3ccc4c(n3)NCCC4)C2)cn1` [Example 23, 3-(((6-Methoxypyridin-3-yl)methyl)(1-(3-(5,6,7,8-tetrahydro-1,8-naphthyridin-2-yl)propyl)azetidin-3-yl)amino)propanoic acid] returned a half-inhibitory concentration (IC50) of 2.8 nM.

The compound `O=C(N[C@@H](COC1CN(CCCc2ccc3c(n2)NCCC3)C1)C(=O)O)OCc1ccccc1` [Example 10, N-((Benzyloxy)carbonyl)-O-(1-(3-(5,6,7,8-tetrahydro-1,8-naphthyridin-2-yl)propyl)azetidin-3-yl)-L-serine] returned an IC50 of 0.8 nM.

As to `CC(=O)N(CCCc1ccc2c(n1)NCCC2)C1CC(C(CC(=O)O)c2cccc(N3CCOCC3)c2)C1` (stereo not drawn) [Example 149, 3-(3-Morpholinophenyl)-3-(3-(N-(3-(5,6,7,8-tetrahydro-1,8-naphthyridin-2-yl)propyl)acetamido)cyclobutyl)propanoic acid], the half-maximal inhibitory concentration (IC50) is 4.6 nM.

Compound `COC(Cc1ccc2c(n1)NCCC2)C1CN(C(=O)C[C@H](NC(=O)OCc2ccccc2)C(=O)O)C1` (stereo partly drawn) [Example 24, (2S)-2-(((Benzyloxy)carbonyl)amino)-4-(3-(1-methoxy-2-(5,6,7,8-tetrahydro-1,8-naphthyridin-2-yl)ethyl)azetidin-1-yl)-4-oxobutanoic acid] gave an IC50 of 490 nM.

As for `Cc1ncc([C@H](CC(=O)O)N2CC(COCCc3ccc4c(n3)NCCC4)C2)cn1` [example 129, (S)-3-(2-methylpyrimidin-5-yl)-3-(3-((2-(5,6,7,8-tetrahydro-1,8-naphthyridin-2-yl)ethoxy)methyl)azetidin-1-yl)propanoic acid], the 50% inhibitory concentration (IC50) came to 3.2 nM.

With `COc1ccc([C@H](CC(=O)O)N2CC(C)(CCCCc3ccc4c(n3)NCCC4)C2=O)cn1` (single isomer, unassigned) [Example 178], the IC50 is 102 nM.

`Cc1cc(C)n(-c2cccc(C(CC(=O)O)N3CC4(CC(CCc5ccc6c(n5)NCCC6)C4)C3)c2)n1` (stereo not drawn) [Example 207] returned an IC50 of 2.8 nM.

In the case of `O=C(O)C[C@@H](c1ccc(F)c(F)c1)N1CC(CCCCc2ccc3c(n2)NCCC3)C1=O` (stereo partly drawn) [Example 112], the IC50 came out at 3.9 nM.

In the case of `O=C(O)C[C@@H](c1cc(F)cc(F)c1)N1CC(CCCCc2ccc3c(n2)NCCC3)C1` [Example 152], the half-maximal inhibitory concentration (IC50) amounted to 1.4 nM.

`COc1ccc([C@H](CC(=O)O)NC(=O)C2CN(CCCc3ccc4c(n3)NCCC4)C2)cn1` [Example 40]: the IC50 was found to be 1.6 nM.

`COc1ccc([C@H](CC(=O)O)N2CC(F)(CCCCc3ccc4c(n3)NCCC4)C2)cn1` [Example 163] showed an IC50 of 2.4 nM.

The compound `Cc1ncc(C(CC(=O)O)N2CC(OCCCc3ccc4c(n3)NCCC4)C2)cn1` (stereo not drawn) [Example 130, 3-(2-methylpyrimidin-5-yl)-3-(3-(3-(5,6,7,8-tetrahydro-1,8-naphthyridin-2-yl)propoxy)azetidin-1-yl)propanoic acid, 2 TFA] registered an IC50 of 8.2 nM.

For the compound `COc1ccc([C@H](CC(=O)O)NC2CN(CCc3ccc4c(n3)NCCC4)C2)cn1` [Example 12, (S)-3-(6-Methoxypyridin-3-yl)-3-((1-(2-(5,6,7,8-tetrahydro-1,8-naphthyridin-2-yl)ethyl)azetidin-3-yl)amino)propanoic acid], the IC50 stood at 3.6 nM.

The compound `COc1ccc([C@H](CC(=O)O)NC(=O)C2CC3(C2)CN(CCc2ccc4c(n2)NCCC4)C3)cc1F` [Example 39] returned an IC50 of 8.4 nM.

Compound `COc1ccc(C(CC(=O)O)N2CC3(CC(CCc4ccc5c(n4)NCCC5)C3)C2)cc1F` (stereo not drawn) [Example 204, 3-(3-fluoro-4-methoxyphenyl)-3-(6-(2-(5,6,7,8-tetrahydro-1,8-naphthyridin-2-yl)ethyl)-2-azaspiro[3.3]heptan-2-yl)propanoic acid] came in with a concentration for half-maximal inhibition (IC50) of 2.2 nM.

As to `COc1ccc([C@H](CC(=O)O)NC(=O)[C@H]2C[C@@H](Cc3ccc4c(n3)NCCC4)C2)cc1F` [Example 201, (S)-3-(3-fluoro-4-methoxyphenyl)-3-((1s,3R)-3-((5,6,7,8-tetrahydro-1,8-naphthyridin-2-yl)methyl)cyclobutane-1-carboxamido)propanoic acid], the IC50 came out at 3.2 nM.

For the compound `COc1ccc([C@H](CC(=O)O)C2(F)CN(C(=O)CCCc3ccc4c(n3)NCCC4)C2)cc1F` [Example 94], the IC50 came out at 10 nM.

Consider `COc1ccc([C@@H](CC(=O)O)C2(F)CN(C(=O)CCCc3ccc4c(n3)NCCC4)C2)cc1F` [Example 95], for which the concentration for half-maximal inhibition (IC50) amounted to 230 nM.

As to `COc1ccc(C(CC(=O)O)C2CC3(C2)CN(CCc2ccc4c(n2)NCCC4)C3)cc1F` (stereo not drawn) [Example 116], the IC50 is 2.4 nM.

For the compound `COc1ccc([C@H](CC(=O)O)N2CC(C)(CCCCc3ccc4c(n3)NCCC4)C2=O)cn1` (single isomer, unassigned) [Example 177], the concentration for half-maximal inhibition (IC50) is 448 nM.

In the case of `COc1ccc([C@H](CC(=O)O)N2CC(CCCc3ccc4c(n3)NCCC4)C2=O)cc1F` (single isomer, unassigned) [Example 179], the IC50 was determined as 55 nM.
